Experimental data from patent US9226919B2, “Methods for dosing an orally active 1,2,4-oxadiazole” (PTC Therapeutics, Inc., priority 2006, dated 2016).
Read-outs that look alike come from different tables or passages of the source.

Experiments:
[1] = Body weight, Phase 2 cystic fibrosis study; type: in vivo, human
Excerpt: 3-[5-(2-Fluoro-phenyl)-[1,2,4]oxadiazol-3-yl]-benzoic acid was provided in a formulation described herein.
Statistically significant results and positive trends for secondary endpoints were also observed. In particular, although the trials were not been powered to detect statistical significant changes in secondary endpoints, statistically significant improvements from study entry to the end of the higher-dose treatment cycle in the patients' mean FEV1, FVC and weight were observed.

[2] = Plasma pharmacokinetics, Phase 2 Duchenne muscular dystrophy study; type: in vivo, human; settings: for AUC(0-t) / Cmax: human, oral
Excerpt: FIG. 1 provides the plasma 3-[5-(2-fluoro-phenyl)-[1,2,4]oxadiazol-3-yl]-benzoic acid concentration-time profiles and PK parameters from 37 of 38 patients in a Phase 2 Duchenne muscular dystrophy study at 4-, 4-, and 8-mg/kg; 10-, 10-, and 20-mg/kg; and 20-, 20- and 40-mg/kg dose levels. The data from one patient was excluded from analysis due to insufficient data.
3-[5-(2-Fluoro-phenyl)-[1,2,4]oxadiazol-3-yl]-benzoic acid was provided in a formulation described herein. Treatment was administered over 28 days for each treatment cohort. An initial cohort of patients (n=6) were treated daily for 28 days with 3-[5-(2-fluoro-phenyl)-[1,2,4]oxadiazol-3-yl]-benzoic acid at 4-, 4-, and 8-mg/kg TID. After review of the clinical safety results, a second cohort of patients (n=20) were treated daily for 28 days with 3-[5-(2-fluoro-phenyl)-[1,2,4]oxadiazol-3-yl]-benzoic acid at 10-, 10-, and 20-mg/kg TID. Thus, each patient received a total of 84 doses of 3-[5-(2-fluoro-phenyl)-[1,2,4]oxadiazol-3-yl]-benzoic acid.
Blood for 3-[5-(2-fluoro-phenyl)-[1,2,4]oxadiazol-3-yl]-benzoic acid concentrations is collected immediately pre-dose and at 3 hours after administration of the first daily dose of study drug on the second day of each visit.
The study drug dosing and sample collection times are recorded. If a heparinized venous catheter is used for sample collection in order to avoid repeated needle sticks, at least 2 mL of blood is removed and discarded prior to each sample collection in order to avoid heparin contamination of the sample. All attempts are made to collect the blood samples at, or within ±5 minutes of, the scheduled time. The timing of the blood draw is in relation to the study drug dosing time.
Each sample comprises 2 mL of venous blood drawn into a 5-mL Vacutainer® or equivalent tube with K3-EDTA as the anticoagulant. Immediately after collection, the tube is gently inverted 8 to 10 times to mix the anticoagulant with the blood sample. The tube is stored upright on ice until centrifugation; centrifugation and sample processing are performed within 1 hour of sample collection. The plasma fraction is separated by placing the collection tube into a refrigerated centrifuge (4 to 8° C.) in a horizontal rotor (with a swing-out head) for a minimum of 15 minutes at 1500 to 1800 relative centrifugal force (RCF). The plasma fraction is withdrawn by pipette and divided into 2 polypropylene freezing tubes (with each tube receiving approximately equal aliquots). All sample collection and freezing tubes are clearly labeled in a fashion that identifies the subject, the study period, and the collection date and time. Labels are fixed to freezing tubes in a manner that will prevent the label from becoming detached after freezing. After processing, samples are placed into a freezer at approximately −20° C. (or lower).
Samples are stored for analysis of 3-[5-(2-fluoro-phenyl)-[1,2,4]oxadiazol-3-yl]-benzoic acid at the end of the study using a validated high performance liquid chromatography with tandem mass spectrometry (HPLC/MS-MS) method. Thereafter, samples are retained for potential later analyses.

dystrophin = assay: In vitro myotube culture of patients' primary muscle cells, dystrophin expression; type: cell-based, human
Procedure: Studies are performed on muscle tissue and skin from patients to determine whether dystrophin production in primary muscle cultures from the patients corresponds with dystrophin production in vivo. […] Correlations of skin cell response with clinical activity may offer an easy-to-obtain predictive test in selecting future patients for therapy or for screening new agents for the treatment of DMD. Cells are cultured as follows. Biopsy material is stored during transport in human proliferation medium (or PBS), and on ice for longer time periods if necessary. If the tissue is not prepared within 24 hours, the material can be frozen in human proliferation medium containing 10% DMSO and stored in liquid nitrogen (or dry ice). At the time the tissue is to be prepared for setting up the myoblast culture, biopsy material is washed in PBS. PBS sufficient to keep the tissue moist is added into a culture dish. The biopsy material is minced thoroughly with razor blades, toward an almost homogeneous suspension. Approximately 2 ml of collegenase/dispase/CaCl2 solution per gram of tissue is added and mincing is continued for several minutes (e.g. for a muscle biopsy of 5×5×5 mm use 1 ml of enzyme solution). […] The myogenic cell content of the culture is determined by performing a desmin-staining. […]

[3] = 10, 10, 20 mg/kg TID, N = 20, mean
[4] = 20, 20, 40 mg/kg TID, N = 11, mean

Compound: O=C(O)c1cccc(-c2noc(-c3ccccc3F)n2)c1 [3-[5-(2-fluoro-phenyl)-[1,2,4]oxadiazol-3-yl]-benzoic acid]
- Weight, End of Higher Dose Treatment ([1]; end of higher-dose cycle (10, 10, 20 mg/kg TID), study entry 58.3 kg): 59.0 kg
- Weight, Change ([1]; study entry to end of higher dose treatment): 0.7 kg
- Cmin, Day 1 ([2]; 4, 4, 8 mg/kg TID, N = 6, mean): 500 ng/mL
- Cmin, Day 28 ([2]; 4, 4, 8 mg/kg TID, N = 6, mean): 600 ng/mL
- Cmin, Day 1 [2, 3]: 3800 ng/mL
- Cmin, Day 28 [2, 3]: 3400 ng/mL
- Cmin, Day 1 [2, 4]: 9600 ng/mL
- Cmin, Day 28 [2, 4]: 6700 ng/mL
- AUC(0-t) ([2]; 8 mg/kg, 4, 4, 8 mg/kg TID, N = 6, mean, read-out: AUC0-24, Day 1): 87 µg·h/mL
- AUC(0-t) ([2]; 8 mg/kg, 4, 4, 8 mg/kg TID, N = 6, mean, read-out: AUC0-24, Day 28): 91 µg·h/mL
- Cmax ([2]; 8 mg/kg, 4, 4, 8 mg/kg TID, N = 6, mean, read-out: Cmax, Day 1): 10000 ng/mL
- Cmax ([2]; 8 mg/kg, 4, 4, 8 mg/kg TID, N = 6, mean, read-out: Cmax, Day 28): 11000 ng/mL
- AUC(0-t) ([2]; 20 mg/kg, 10, 10, 20 mg/kg TID, N = 20, mean, read-out: AUC0-24, Day 1): 291 µg·h/mL
- AUC(0-t) ([2]; 20 mg/kg, 10, 10, 20 mg/kg TID, N = 20, mean, read-out: AUC0-24, Day 28): 235 µg·h/mL
- Cmax ([2]; 20 mg/kg, 10, 10, 20 mg/kg TID, N = 20, mean, read-out: Cmax, Day 1): 27000 ng/mL
- Cmax ([2]; 20 mg/kg, 10, 10, 20 mg/kg TID, N = 20, mean, read-out: Cmax, Day 28): 22000 ng/mL
- AUC(0-t) ([2]; 40 mg/kg, 20, 20, 40 mg/kg TID, N = 11, mean, read-out: AUC0-24, Day 1): 866 µg·h/mL
- AUC(0-t) ([2]; 40 mg/kg, 20, 20, 40 mg/kg TID, N = 11, mean, read-out: AUC0-24, Day 28): 490 µg·h/mL
- Cmax ([2]; 40 mg/kg, 20, 20, 40 mg/kg TID, N = 11, mean, read-out: Cmax, Day 1): 76000 ng/mL
- Cmax ([2]; 40 mg/kg, 20, 20, 40 mg/kg TID, N = 11, mean, read-out: Cmax, Day 28): 46000 ng/mL
- Dystrophin expression in myotube cultures (dystrophin; cultured in the presence of the compound): dose-dependent increase in dystrophin expression
- In Vitro Expression Response (dystrophin) (dystrophin; myotube culture of pre-treatment primary muscle cells of individual DMD patients): Yes
